System: OleT
Test: Inhibitory effect of gluconic acid on OleT productivity
Type: biochemical
Conditions: 10 mM gluconic acid
Experimental: After 24 h reaction time, product concentrations of 1.16 mM (0.27 g L-1) 1-heptadecene and 1 mM (0.21 g L-1) 1-pentadecene were obtained but could not be further enhanced. […] Compared to a previously published whole cell reaction system, this FDH-driven system allows 6 times higher product titer and a 21 times higher volumetric productivity with 42.5 mg L-1 h-1 of α-olefin after 8 h reaction time vs: 98 mg L-1 in 48 h) (Table 2).

## O=C(O)[C@H](O)[C@@H](O)[C@H](O)[C@H](O)CO [gluconic acid]
  reduction of OleT productivity: 28%
